# In PubChem BioAssay AID2060910 (Molecular Pharmacology Branch, DTP, NCI, 2025):
# System: 242566-281-R-J2-PDC complex spheroid viability
# Assay: Anticancer human tumor 242566-281-R-J2-PDC patient-derived pancreatic carcinoma cell line growth inhibition [RAS]
# Conditions: for IC50: curve of first compound; for viability, T/C: stronger effect = lower value
# In short: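 Multi-cell-type spheroids: tumor cells plus HUVEC endothelial cells and mesenchymal stem cells. RAS-pathway inhibitors were combined with targeted agents, each dosed in half-log steps down from clinical Cmax, or from 10 microM when Cmax was unknown.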
# [1] = second compound 0.000949 µM, first compound 0.00316 µM
# [2] = second compound 0.000949 µM, first compound 0.01 µM
# [3] = second compound 0.000949 µM, first compound 0.0316 µM
# [4] = second compound 0.000949 µM, first compound 0.1 µM
# [5] = second compound 0.003 µM, first compound 0.00316 µM
# [6] = second compound 0.003 µM, first compound 0.01 µM
# [7] = second compound 0.003 µM, first compound 0.0316 µM
# [8] = second compound 0.003 µM, first compound 0.1 µM
# [9] = second compound 0.00949 µM, first compound 0.00316 µM
# [10] = second compound 0.00949 µM, first compound 0.01 µM
# [11] = second compound 0.00949 µM, first compound 0.0316 µM
# [12] = second compound 0.00949 µM, first compound 0.1 µM
# [13] = second compound 0.03 µM, first compound 0.00316 µM
# [14] = second compound 0.03 µM, first compound 0.01 µM
# [15] = second compound 0.03 µM, first compound 0.0316 µM
# [16] = second compound 0.03 µM, first compound 0.1 µM
# [17] = second compound 0.0949 µM, first compound 0.00316 µM
# [18] = second compound 0.0949 µM, first compound 0.01 µM
# [19] = second compound 0.0949 µM, first compound 0.0316 µM
# [20] = second compound 0.0949 µM, first compound 0.1 µM
# [21] = second compound 0.3 µM, first compound 0.00316 µM
# [22] = second compound 0.3 µM, first compound 0.01 µM
# [23] = second compound 0.3 µM, first compound 0.0316 µM
# [24] = second compound 0.3 µM, first compound 0.1 µM
# 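Also: spheroids exposed to compound for 7 days before readout.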
# 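For viability, T/C in this document: 100% = DMSO vehicle control wells.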
compound,measurement,setting,value
CC(C)n1nc(-c2ccc3oc(N)nc3c2)c2c(N)ncnc21 + CCn1c(-c2cc(N3CCN(C)CC3)cnc2C(C)OC)c2c3cc(ccc31)-c1csc(n1)CC(NC(=O)C1CC1C)C(=O)N1CCCC(N1)C(=O)OCC(C)(C)C2,IC50,second compound 0.000949 µM,0.0299 µM
same,IC50,second compound 0.003 µM,0.00715 µM
same,IC50,second compound 0.00949 µM,< 0.000316 µM
same,IC50,second compound 0.03 µM,< 0.000316 µM
same,IC50,second compound 0.0949 µM,< 0.000316 µM
same,IC50,second compound 0.3 µM,< 0.000316 µM
same,"viability, T/C","second compound 0.000949 µM, first compound 0.000316 µM",81.6%
same,"viability, T/C","second compound 0.000949 µM, first compound 0.001 µM",91.5%
same,"viability, T/C",[1],61.7%
same,"viability, T/C",[2],71.3%
same,"viability, T/C",[3],48%
same,"viability, T/C",[4],27.4%
same,"viability, T/C","second compound 0.003 µM, first compound 0.000316 µM",75.8%
same,"viability, T/C","second compound 0.003 µM, first compound 0.001 µM",62.1%
same,"viability, T/C",[5],54.2%
same,"viability, T/C",[6],48.7%
same,"viability, T/C",[7],40.9%
same,"viability, T/C",[8],20.6%
same,"viability, T/C","second compound 0.00949 µM, first compound 0.000316 µM",48.5%
same,"viability, T/C","second compound 0.00949 µM, first compound 0.001 µM",38.4%
same,"viability, T/C",[9],36.1%
same,"viability, T/C",[10],30.9%
same,"viability, T/C",[11],28.2%
same,"viability, T/C",[12],15.8%
same,"viability, T/C","second compound 0.03 µM, first compound 0.000316 µM",28.5%
same,"viability, T/C","second compound 0.03 µM, first compound 0.001 µM",29.8%
same,"viability, T/C",[13],26.3%
same,"viability, T/C",[14],19.1%
same,"viability, T/C",[15],11.9%
same,"viability, T/C",[16],10.4%
same,"viability, T/C","second compound 0.0949 µM, first compound 0.000316 µM",21.5%
same,"viability, T/C","second compound 0.0949 µM, first compound 0.001 µM",18.4%
same,"viability, T/C",[17],18.9%
same,"viability, T/C",[18],13.8%
same,"viability, T/C",[19],7.41%
same,"viability, T/C",[20],6.96%
same,"viability, T/C","second compound 0.3 µM, first compound 0.000316 µM",18.5%
same,"viability, T/C","second compound 0.3 µM, first compound 0.001 µM",16.6%
same,"viability, T/C",[21],15.2%
same,"viability, T/C",[22],11.5%
same,"viability, T/C",[23],7.41%
same,"viability, T/C",[24],5.69%
C=CC(=O)Nc1cc(Nc2nccc(-c3cn(C)c4ccccc34)n2)c(OC)cc1N(C)CCN(C)C + CCn1c(-c2cc(N3CCN(C)CC3)cnc2C(C)OC)c2c3cc(ccc31)-c1csc(n1)CC(NC(=O)C1CC1C)C(=O)N1CCCC(N1)C(=O)OCC(C)(C)C2,IC50,second compound 0.000949 µM,0.323 µM
same,IC50,second compound 0.003 µM,0.0716 µM
same,IC50,second compound 0.00949 µM,< 0.00316 µM
same,IC50,second compound 0.03 µM,< 0.00316 µM
same,IC50,second compound 0.0949 µM,< 0.00316 µM
same,IC50,second compound 0.3 µM,< 0.00316 µM
same,"viability, T/C",[1],90.9%
same,"viability, T/C",[2],90%
same,"viability, T/C",[3],61.8%
same,"viability, T/C",[4],75.8%
same,"viability, T/C","second compound 0.000949 µM, first compound 0.316 µM",51.8%
same,"viability, T/C","second compound 0.000949 µM, first compound 1 µM",25.3%
same,"viability, T/C",[5],76%
same,"viability, T/C",[6],61.4%
same,"viability, T/C",[7],54.9%
same,"viability, T/C",[8],52.2%
same,"viability, T/C","second compound 0.003 µM, first compound 0.316 µM",35.2%
same,"viability, T/C","second compound 0.003 µM, first compound 1 µM",19%
same,"viability, T/C",[9],48.4%
same,"viability, T/C",[10],40.9%
same,"viability, T/C",[11],41.2%
same,"viability, T/C",[12],30.7%
same,"viability, T/C","second compound 0.00949 µM, first compound 0.316 µM",21.2%
same,"viability, T/C","second compound 0.00949 µM, first compound 1 µM",15.3%
same,"viability, T/C",[13],31.3%
same,"viability, T/C",[14],30.7%
same,"viability, T/C",[15],24%
same,"viability, T/C",[16],22%
same,"viability, T/C","second compound 0.03 µM, first compound 0.316 µM",14.8%
same,"viability, T/C","second compound 0.03 µM, first compound 1 µM",16.7%
same,"viability, T/C",[17],21.2%
same,"viability, T/C",[18],20.6%
same,"viability, T/C",[19],20.1%
same,"viability, T/C",[20],18.1%
same,"viability, T/C","second compound 0.0949 µM, first compound 0.316 µM",13%
same,"viability, T/C","second compound 0.0949 µM, first compound 1 µM",15.9%
same,"viability, T/C",[21],18.6%
same,"viability, T/C",[22],18.2%
same,"viability, T/C",[23],15.7%
same,"viability, T/C",[24],14%
same,"viability, T/C","second compound 0.3 µM, first compound 0.316 µM",14.6%
same,"viability, T/C","second compound 0.3 µM, first compound 1 µM",14.9%
C=CC(=O)Nc1cc(Nc2nccc(-c3cn(C)c4ccccc34)n2)c(OC)cc1N(C)CCN(C)C + C#Cc1c(F)ccc2cc(O)cc(-c3ncc4c(N5CC6CCC(C5)N6)nc(OCC56CCCN5CC(F)C6)nc4c3F)c12,IC50,second compound 0.0316 µM,0.114 µM
same,IC50,second compound 0.1 µM,0.0708 µM
same,IC50,second compound 0.316 µM,0.0881 µM
same,IC50,second compound 1 µM,0.0252 µM
same,IC50,second compound 3.16 µM,0.0222 µM
same,IC50,second compound 10 µM,0.0161 µM
same,"viability, T/C","second compound 0.0316 µM, first compound 0.00316 µM",81.2%
same,"viability, T/C","second compound 0.0316 µM, first compound 0.01 µM",115%
same,"viability, T/C","second compound 0.0316 µM, first compound 0.0316 µM",80.8%
same,"viability, T/C","second compound 0.0316 µM, first compound 0.1 µM",52.9%
same,"viability, T/C","second compound 0.0316 µM, first compound 0.316 µM",43.1%
same,"viability, T/C","second compound 0.0316 µM, first compound 1 µM",37.9%
same,"viability, T/C","second compound 0.1 µM, first compound 0.00316 µM",80.3%
same,"viability, T/C","second compound 0.1 µM, first compound 0.01 µM",85.2%
same,"viability, T/C","second compound 0.1 µM, first compound 0.0316 µM",60.7%
same,"viability, T/C","second compound 0.1 µM, first compound 0.1 µM",46.9%
same,"viability, T/C","second compound 0.1 µM, first compound 0.316 µM",41.3%
same,"viability, T/C","second compound 0.1 µM, first compound 1 µM",35.2%
same,"viability, T/C","second compound 0.316 µM, first compound 0.00316 µM",77.6%
same,"viability, T/C","second compound 0.316 µM, first compound 0.01 µM",75.2%
same,"viability, T/C","second compound 0.316 µM, first compound 0.0316 µM",66%
same,"viability, T/C","second compound 0.316 µM, first compound 0.1 µM",47.1%
same,"viability, T/C","second compound 0.316 µM, first compound 0.316 µM",40.7%
same,"viability, T/C","second compound 0.316 µM, first compound 1 µM",35.3%
same,"viability, T/C","second compound 1 µM, first compound 0.00316 µM",68.3%
same,"viability, T/C","second compound 1 µM, first compound 0.01 µM",60.2%
same,"viability, T/C","second compound 1 µM, first compound 0.0316 µM",46.7%
same,"viability, T/C","second compound 1 µM, first compound 0.1 µM",42.1%
same,"viability, T/C","second compound 1 µM, first compound 0.316 µM",36.4%
same,"viability, T/C","second compound 1 µM, first compound 1 µM",38.5%
same,"viability, T/C","second compound 3.16 µM, first compound 0.00316 µM",60.2%
same,"viability, T/C","second compound 3.16 µM, first compound 0.01 µM",58.6%
same,"viability, T/C","second compound 3.16 µM, first compound 0.0316 µM",48%
same,"viability, T/C","second compound 3.16 µM, first compound 0.1 µM",41%
same,"viability, T/C","second compound 3.16 µM, first compound 0.316 µM",36.1%
same,"viability, T/C","second compound 3.16 µM, first compound 1 µM",37.7%
same,"viability, T/C","second compound 10 µM, first compound 0.00316 µM",57.1%
same,"viability, T/C","second compound 10 µM, first compound 0.01 µM",57.1%
same,"viability, T/C","second compound 10 µM, first compound 0.0316 µM",44.6%
same,"viability, T/C","second compound 10 µM, first compound 0.1 µM",40.1%
same,"viability, T/C","second compound 10 µM, first compound 0.316 µM",39.8%
same,"viability, T/C","second compound 10 µM, first compound 1 µM",36.7%
